# From patent publication US10364245B2 (CHIESI FARMACEUTICI S.p.A., priority 2017, dated 2019)
# Structures can show the parent of a compound that is named as a salt.
# How the values were obtained:
# p38 alpha = target: T1, p38 alpha (Homo sapiens, UniProt Q16539); assay: P38 alpha enzyme inhibition assay (Alphascreen kinase activity assay); assay type: biochemical; conditions: 100 pM p38 alpha, 2 hours preincubation at 25° C., 250 μM ATP, ATF-2 fusion protein; read-out: p38α inhibition
# T1 construct: purchased Invitrogen PV3304
# How it was run: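 100 pM p38 alpha preincubated 2 h at 25 °C with compound and 0.3 μg/ml ATF-2 fusion substrate (HEPES pH 7.5, MgCl2, 1% DMSO). Reaction started with 250 μM ATP, run 1 h at 25 °C, stopped with EDTA; phospho-ATF2 detected by AlphaScreen luminescence. IC50 from concentration-response curves.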
# [1] = test system: Peripheral Blood Mononuclear Cells (PBMCs), TNFα release; assay: LPS-stimulated PBMC TNFα release assay; assay type: cell-based; conditions: human PBMC, LPS (10 ng/ml), 18 h, compound 1 h before LPS; read-out: LPS-stimulated PBMC TNFα release inhibition
# How it was run: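 Human PBMCs from healthy donors, serum-starved 3 h, then pre-incubated 1 h at 37 °C with compound in 1% FBS medium before LPS (10 ng/ml) for 18 h. Supernatant TNFα measured by MSD; IC50 from dose-response as % inhibition of control, at least three experiments.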
# T1 sequence (Q16539 whole entry, the tested form may be a part): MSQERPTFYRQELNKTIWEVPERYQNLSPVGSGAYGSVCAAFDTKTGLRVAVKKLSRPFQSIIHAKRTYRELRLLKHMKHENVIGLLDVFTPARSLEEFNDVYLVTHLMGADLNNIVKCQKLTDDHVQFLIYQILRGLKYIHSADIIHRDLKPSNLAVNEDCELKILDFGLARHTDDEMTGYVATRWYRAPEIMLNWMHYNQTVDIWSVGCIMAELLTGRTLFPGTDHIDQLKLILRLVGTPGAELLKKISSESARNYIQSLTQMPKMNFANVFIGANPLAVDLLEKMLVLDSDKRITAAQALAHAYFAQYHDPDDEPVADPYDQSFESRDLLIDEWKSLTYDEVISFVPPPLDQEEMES
IC50 (p38 alpha),SMILES,IC50 [1]
< 1 nM,"CC[C@H](C)c1nnc2ccc(O[C@@H]3CC[C@H](NC(=O)Nc4cc(C(C)(C)C)nc(C(=O)NCCN(C)CC)n4)c4ccccc43)cn12 [Example 146, 4-(tert-butyl)-6-(3-((1S,4R)-4-((3-((S)-sec-butyl)-[1,2,4]triazolo[4,3-a]pyridin-6-yl)oxy)-1,2,3,4-tetrahydronaphthalen-1-yl)ureido)-N-(2-(ethyl(methyl)amino)-ethyl)pyrimidine-2-carboxamide]",1 to 5 nM
< 1 nM,"COCC(C)(C)c1nnc2ccc(O[C@@H]3CC[C@H](NC(=O)Nc4cc(C(C)(C)C)nc(C(=O)NCC5(N(C)C)CC5)n4)c4ccccc43)cn12 [Example 149, 4-(tert-butyl)-N-((1-(dimethylamino)cyclopropyl)methyl)-6-(3-((1S,4R)-4-((3-(l-methoxy-2-methylpropan-2-yl)-[1,2,4]triazolo[4,3-a]pyridin-6-yl)oxy)-1,2,3,4-tetrahydronaphthalen-1-yl)ureido)pyrimidine-2-carboxamide]",1 to 5 nM
< 1 nM,"CN1CCN(C(C)(C)CNC(=O)c2nc(NC(=O)N[C@H]3CC[C@@H](Oc4ccc5nnc(C(C)(C)C)n5c4)c4ccccc43)cc(C(C)(C)C)n2)CC1 [Example 151, 4-(tert-butyl)-6-(3-((1S,4R)-4-((3-(tert-butyl)-[1,2,4]triazolo[4,3-a]pyridin-6-yl)oxy)-1,2,3,4-tetrahydronaphthalen-1-yl)ureido)-N-(2-methyl-2-(4-methylpiperazin-1-yl)propyl)pyrimidine-2-carboxamide]",> 5 nM
< 1 nM,"CCN(C)C(C)(C)CNC(=O)c1nc(NC(=O)N[C@H]2CC[C@@H](Oc3ccc4nnc(C(C)(C)COC)n4c3)c3ccccc32)cc(C(C)(C)C)n1 [Example 152, 4-(tert-butyl)-N-(2-(ethyl(methyl)amino)-2-methylpropyl)-6-(3-((1S,4R)-4-((3-(1-methoxy-2-methylpropan-2-yl)-[1,2,4]triazolo[4,3-a]pyridin-6-yl)oxy)-1,2,3,4-tetrahydronaphthalen-1-yl)ureido)pyrimidine-2-carboxamide]",> 5 nM
< 1 nM,"COCC(C)(C)c1nnc2ccc(O[C@@H]3CC[C@H](NC(=O)Nc4cc(C(C)(C)C)nc(C(=O)NCC5(N(C)C)CCCC5)n4)c4ccccc43)cn12 [Example 154, 4-(tert-butyl)-N-((1-(dimethylamino)cyclopentyl)methyl)-6-(3-((1S,4R)-4-((3-(1-methoxy-2-methylpropan-2-yl)-[1,2,4]triazolo[4,3-a]pyridin-6-yl)oxy)-1,2,3,4-tetrahydronaphthalen-1-yl)ureido)pyrimidine-2-carboxamide]",> 5 nM
< 1 nM,"COCC(C)(C)c1nnc2ccc(O[C@@H]3CC[C@H](NC(=O)Nc4cc(C(C)(C)C)nc(C(=O)NCC(C)(C)N5CCN(C)CC5)n4)c4ccccc43)cn12 [Example 155, 4-(tert-butyl)-6-(3-((1S,4R)-4-((3-(1-methoxy-2-methylpropan-2-yl)-[1,2,4]triazolo[4,3-a]pyridin-6-yl)oxy)-1,2,3,4-tetrahydronaphthalen-1-yl)ureido)-N-(2-methyl-2-(4-methylpiperazin-1-yl)propyl)pyrimidine-2-carboxamide]",> 5 nM
< 1 nM,"COCC(C)(C)c1nnc2ccc(O[C@@H]3CC[C@H](NC(=O)Nc4cc(C(C)(C)C)nc(C(=O)NCC5(N(C)C)CCC5)n4)c4ccccc43)cn12 [Example 158, 4-(tert-Butyl)-N-((1-(dimethylamino)-cyclobutyl)methyl)-6-(3-((1S,4R)-4-((3-(1-methoxy-2-methylpropan-2-yl)-[1,2,4]triazolo[4,3-a]pyridin-6-yl)oxy)-1,2,3,4-tetrahydronaphthalen-1-yl)ureido)pyrimidine-2-carboxamide formate salt]",1 to 5 nM
1 to 10 nM,"CN(C)C1(CNC(=O)c2nc(NC(=O)N[C@H]3CC[C@@H](Oc4ccc5nnc(C(C)(C)C)n5c4)c4ccccc43)cc(C(C)(C)C)n2)CC1 [Example 159, 4-(tert-butyl)-6-(3-((1S,4R)-4-((3-(tert-butyl)-[1,2,4]triazolo[4,3-a]pyridin-6-yl)oxy)-1,2,3,4-tetrahydronaphthalen-1-yl)ureido)-N-((1-(dimethylamino)-cyclopropyl)methyl)-pyrimidine-2-carboxamide]",> 5 nM
< 1 nM,"COCC(C)(C)c1nnc2ccc(O[C@@H]3CC[C@H](NC(=O)Nc4cc(C(C)(C)C)nc(C(=O)NCCN5CC(OC)C5)n4)c4ccccc43)cn12 [Example 166, 4-(tert-butyl)-6-(3-((1S,4R)-4-((3-(1-methoxy-2-methylpropan-2-yl)-[1,2,4]triazolo[4,3-a]pyridin-6-yl)oxy)-1,2,3,4-tetrahydronaphthalen-1-yl)ureido)-N-(2-(3-methoxyazetidin-1-yl)ethyl)pyrimidine-2-]",> 5 nM
< 1 nM,"CC[C@H](C)c1nnc2ccc(O[C@@H]3CC[C@H](NC(=O)Nc4cc(C(C)(C)C)nc(C(=O)NCCN5CC(OC)C5)n4)c4ccccc43)cn12 [Example 169, 4-(tert-butyl)-6-(3-((1S,4R)-4-((3-((S)-sec-butyl)-[1,2,4]triazolo[4,3-a]pyridin-6-yl)oxy)-1,2,3,4-tetrahydronaphthalen-1-yl)ureido)-N-(2-(3-methoxyazetidin-1-yl)ethyl)pyrimidine-2-carboxamide]",1 to 5 nM
1 to 10 nM,"COCC(C)(C)c1nnc2ccc(O[C@@H]3CC[C@H](NC(=O)Nc4cc(C(C)(C)C)nc(C(=O)NCC(C)(C)N5CC(OC)C5)n4)c4ccccc43)cn12 [Example 171, 4-(tert-butyl)-6-(3-((1S,4R)-4-((3-(1-methoxy-2-methylpropan-2-yl)-[1,2,4]triazolo[4,3-a]pyridin-6-yl)oxy)-1,2,3,4-tetrahydronaphthalen-1-yl)ureido)-N-(2-(3-methoxyazetidin-1-yl)-2-methylpropyl)pyrimidine-2-carboxamide]",1 to 5 nM
< 1 nM,"CCC(CC)c1nnc2ccc(O[C@@H]3CC[C@H](NC(=O)Nc4cc(C(C)(C)C)nc(C(=O)NCC(C)(C)N5CCN(C)CC5)n4)c4ccccc43)cn12 [Example 173, 4-(tert-butyl)-N-(2-methyl-2-(4-methylpiperazin-1-yl)propyl)-6-(3-((1S,4R)-4-((3-(pentan-3-yl)-[1,2,4]triazolo[4,3-a]pyridin-6-yl)oxy)-1,2,3,4-tetrahydronaphthalen-1-yl)ureido)pyrimidine-2-carboxamide formate salt]",1 to 5 nM
< 1 nM,"CCC(CC)c1nnc2ccc(O[C@@H]3CC[C@H](NC(=O)Nc4cc(C(C)(C)C)nc(C(=O)NCC(C)(C)N5CC(OC)C5)n4)c4ccccc43)cn12 [Example 174, 4-(tert-butyl)-N-(2-(3-methoxyazetidin-1-yl)-2-methylpropyl)-6-(3-((1S,4R)-4-((3-(pentan-3-yl)-[1,2,4]triazolo[4,3-a]pyridin-6-yl)oxy)-1,2,3,4-tetrahydronaphthalen-1-yl)ureido)pyrimidine-2-carboxamide formate salt]",1 to 5 nM
< 1 nM,"CCC(CC)c1nnc2ccc(O[C@@H]3CC[C@H](NC(=O)Nc4cc(C(C)(C)C)nc(C(=O)NCC(C)(C)N(C)C)n4)c4ccccc43)cn12 [Example 175, 4-(tert-butyl)-N-(2-(dimethylamino)-2-methylpropyl)-6-(3-((1S,4R)-4-((3-(pentan-3-yl)-[1,2,4]triazolo[4,3-a]pyridin-6-yl)oxy)-1,2,3,4-tetrahydronaphthalen-1-yl)ureido)pyrimidine-2-carboxamide formate salt]",1 to 5 nM
< 1 nM,"CCC(CC)c1nnc2ccc(O[C@@H]3CC[C@H](NC(=O)Nc4cc(C(C)(C)C)nc(C(=O)NCC(C)(C)N(C)CC)n4)c4ccccc43)cn12 [Example 176, 4-(tert-butyl)-N-(2-(ethyl(methyl)amino)-2-methylpropyl)-6-(3-((1S,4R)-4-((3-(pentan-3-yl)-[1,2,4]triazolo[4,3-a]pyridin-6-yl)oxy)-1,2,3,4-tetrahydronaphthalen-1-yl)ureido)pyrimidine-2-carboxamide]",1 to 5 nM
1 to 10 nM,"COCCN(C)C(C)(C)CNC(=O)c1nc(NC(=O)N[C@H]2CC[C@@H](Oc3ccc4nnc(C(C)(C)COC)n4c3)c3ccccc32)cc(C(C)(C)C)n1 [Example 178, 4-(tert-butyl)-6-(3-((1S,4R)-4-((3-(1-methoxy-2-methylpropan-2-yl)-[1,2,4]triazolo[4,3-a]pyridin-6-yl)oxy)-1,2,3,4-tetrahydronaphthalen-1-yl)ureido)-N-(2-((2-methoxyethyl)(methyl)-amino)-2-methylpropyl)pyrimidine-2-carboxamide]",1 to 5 nM
< 1 nM,"CN(CCO)CCNC(=O)c1nc(NC(=O)N[C@H]2CC[C@@H](Oc3ccc4nnc(C5(C)CCCC5)n4c3)c3ccccc32)cc(C(C)(C)C)n1 [Example 181, 4-(tert-butyl)-N-(2-((2-hydroxyethyl)(methyl)amino)ethyl)-6-(3-((1S,4R)-4-((3-(1-methylcyclopentyl)-[1,2,4]triazolo[4,3-a]pyridin-6-yl)oxy)-1,2,3,4-tetrahydronaphthalen-1-yl)ureido)pyrimidine-2-carboxamide]",1 to 5 nM
< 1 nM,"CC(C)(C)c1cc(NC(=O)N[C@H]2CC[C@@H](Oc3ccc4nnc(C5(C)CCCC5)n4c3)c3ccccc32)nc(C(=O)NCCN2CCCOCC2)n1 [Example 182, N-(2-(1,4-oxazepan-4-yl)ethyl)-4-(tert-butyl)-6-(3-((1S,4R)-4-((3-(1-methylcyclopentyl)-[1,2,4]triazolo[4,3-a]pyridin-6-yl)oxy)-1,2,3,4-tetrahydronaphthalen-1-yl)ureido)pyrimidine-2-carboxamide]",< 1 nM
